From patent US20090297637A1

Tests used:
[1] = biological target: T1, ERβ (Homo sapiens, UniProt Q92731); settings: in the presence of ERβ
Description: (§1) Plasmid Construction. […] ERβ mutants were created with QuikChange site-directed mutagenesis kits (Stratagene), by using oligonucleotides containing the mutation. The mutants were sequenced with Sequenase kits (Amersham Pharmacia) to verify the presence of the mutation.

[2] = biological target: T1, ERβ; assay: Repression of TNF-α activation of TNF-RE tkLuc in U2OS cells; format: cell-based; design: expressed in transfected cells
[3] = system: TNF-RE tkLuc; assay: Activation of TNF-RE tkLuc reporter (Example 2); format: cell-based, human; settings: for effect on the repression induced by E2: TNF-RE tkLuc
Description: as §1

[4] = biological target: T1, ERβ; assay: ERE-tk-Luc luciferase assay in U2OS osteosarcoma cells; format: cell-based; design: expressed in transfected cells; host or cells: U2OS (human osteosarcoma); settings: co-administration with the extract
[5] = system: breast cancer; settings: among 5129 women in the treatment group, median follow-up 40 months; cited from earlier work
[6] = system: breast cancer; settings: cited from earlier work

T1 sequence (Q92731 whole entry): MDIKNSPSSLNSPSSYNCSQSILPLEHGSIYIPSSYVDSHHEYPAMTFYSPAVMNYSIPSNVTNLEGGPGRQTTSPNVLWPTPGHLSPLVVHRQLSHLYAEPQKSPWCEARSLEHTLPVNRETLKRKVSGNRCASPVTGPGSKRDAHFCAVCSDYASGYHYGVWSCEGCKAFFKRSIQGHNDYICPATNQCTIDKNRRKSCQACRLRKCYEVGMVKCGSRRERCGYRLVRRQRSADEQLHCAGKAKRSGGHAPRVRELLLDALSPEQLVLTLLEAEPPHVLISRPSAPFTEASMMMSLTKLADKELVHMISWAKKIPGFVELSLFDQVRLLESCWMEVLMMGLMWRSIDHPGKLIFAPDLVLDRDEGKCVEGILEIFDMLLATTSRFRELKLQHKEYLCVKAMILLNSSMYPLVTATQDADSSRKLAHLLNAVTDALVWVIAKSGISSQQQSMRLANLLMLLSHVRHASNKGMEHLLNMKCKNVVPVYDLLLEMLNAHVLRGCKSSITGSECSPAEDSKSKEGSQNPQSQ

With `C[C@]12CC[C@@H]3c4ccc(O)cc4CC[C@H]3[C@@H]1CC[C@@H]2O` [Herb E2, estradiol] the “repression of TNF-α activation of TNF-RE tkLuc” value [1] was 60-80% and the “repression of TNF-α activation of TNF-RE” value [2] was 100%.
In the case of TNF-α, the “activation of 3 copies of the TNF-RE (−125 to −82) upstream of the tk promoter” value ([3]; TNF-α as stimulus) is reported as 5-10 fold.
With `C[C@]12CC[C@@H]3c4ccc(O)cc4C[C@@H](CCCCCCCCC[S+]([O-])CCCC(F)(F)C(F)(F)F)[C@H]3[C@@H]1CC[C@@H]2O` (some centres unmarked) [ICI 182780] the “effect of anti-estrogen on extract-stimulated ERE-tk-Luc expression” value (shortened to “effect of anti-estrogen”) ([4]; FIG. 5) was “counteracted”, the “effect of anti-estrogen” value ([4]; FIG. 5, listed as ICI) was “attenuated” and the “activation of TNF-RE tkLuc by antiestrogens” value (“activation … by antiestrogens” below) [3] was 2 fold. The “effect on the repression induced by E2” value [3] was “abolished the repression induced by E2”.
For `O=C(c1ccc(OCCN2CCCCC2)cc1)c1c(-c2ccc(O)cc2)sc2cc(O)ccc12` [raloxifene], the “cases of breast cancer” value [5] is listed as 13 cases, the “effect of anti-estrogen” value ([4]; FIG. 5) is listed as “counteracted” and the “effect of anti-estrogen” value ([4]; FIG. 5, listed as Raloxifene) is listed as “attenuated”. For the same compound, the “activation … by antiestrogens” value [3] was 2 fold and the “effect on the repression induced by E2” value [3] was “abolished the repression induced by E2”.
For `CC/C(=C(\c1ccccc1)c1ccc(OCCN(C)C)cc1)c1ccccc1` [tamoxifen], the “reduction of the risk of primary invasive breast cancer” value ([6]; BCPT, women at high risk for breast cancer) is given as 49%, the “reduction of the risk of recurrences” value ([6]; five years of therapy, ER-positive breast cancer) is given as 42% and the “reduction of mortality from breast cancer” value ([6]; five years of therapy) is given as 22%. The “activation … by antiestrogens” value [3] was 2 fold and the “effect on the repression induced by E2” value [3] was “abolished the repression induced by E2”.
